The results in this text go back to ChEMBL document CHEMBL1201862, “PubChem BioAssay data set” (2004).

The target of assay [1] is Signal transducer and activator of transcription 3 (Homo sapiens, UniProt P40763). Put plainly: STAT3 activators, late-stage profile, late-stage follow-up, cell-based, STAT1 reporter, BCL3 qPCR, cytotoxicity, panel member STAT3 Activation (AID 2049). In general terms: In qPCR the cycle at which signal appears reflects the starting amount.
Assay [2] concerns the target Neurotensin receptor type 1 (Homo sapiens, UniProt P30989). In kind it is functional.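 Note: Image-based confirmatory dose-response assay measuring agonist activity at NTR1; NTR1-expressing U2OS osteosarcoma cells imaged for beta-arrestin GFP spot formation; agonist potency where compounds increase beta-arrestin recruitment.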
For assay [3], the target named is NACHT, LRR and PYD domains-containing protein 3 (Homo sapiens, UniProt Q96P20). Kind of assay: NALP3 inhibitors in yeast, dose response, luminescent (AID 488799). In kind it is functional.
Assay [4] is described as follows: cytotoxicity toward NIH3T3 fibroblasts, dose response, counter-screen, cell-based, ATP luminescence, mouse fibroblasts (AID 2010).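 Note: cells exposed to compound for about 90 hours before reading.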 The assay is classed as functional. Background: The purpose of a counterscreen is to sort out artefacts and off-target activity.
The target in assay [5] is T1, Calpain-2 catalytic subunit (Sus scrofa, UniProt P43367).
T1 sequence (P43367 whole entry): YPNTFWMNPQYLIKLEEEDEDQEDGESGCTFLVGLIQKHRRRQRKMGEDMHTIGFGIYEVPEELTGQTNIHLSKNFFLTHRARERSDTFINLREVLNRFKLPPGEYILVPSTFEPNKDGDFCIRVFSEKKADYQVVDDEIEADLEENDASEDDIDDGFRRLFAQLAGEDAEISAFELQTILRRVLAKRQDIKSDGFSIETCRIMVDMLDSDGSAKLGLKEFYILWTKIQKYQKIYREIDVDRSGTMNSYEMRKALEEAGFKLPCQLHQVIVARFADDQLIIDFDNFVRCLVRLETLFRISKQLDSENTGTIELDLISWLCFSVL
Kind of assay: pig calpain II inhibitor potency, dose response, biochemical, fluorogenic peptide substrate (AID 1420). In kind it is functional.

Assay [6] can be described thus: cells.
A short description of assay [7]: cytotoxicity in HEK-293T cells, dose response, cytotoxicity control for TCR NF-kB inhibitor project, luminescence, T-cell screen hits (AID 489026).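 Note: cells exposed to compound about 14 hours before the viability readout.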 The assay is classed as functional, cell-based.
Assay [8] is described as follows: inhibitors of intracellular T. cruzi replication, confirmation, NIH3T3 host cells, beta-gal luminescence (AID 2044).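 Note: intracellular parasites grown in NIH/3T3 mouse fibroblasts as host cells; luminescent beta-galactosidase reporter signal from transgenic T. cruzi replicating inside host cells; inhibitors lower the luminescence signal.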 The assay is classed as functional, cell-based.
For assay [9], the target named is T2, Kappa-type opioid receptor (Homo sapiens, UniProt P41145). Kind of assay: SAR analysis of small molecule antagonists of the kappa opioid receptor via a luminescent beta-arrestin assay - Set 4. [Related pubchem assays (depositor defined):AID1777, AID1778, AID1785, AID1786, AID1966, AID2133, AID2136, AID2285]. The assay is classed as functional.
Assay [10] has as its target Mu-type opioid receptor (Homo sapiens, UniProt P35372). Put plainly: SAR Analysis of Antagonists of the MOR Receptor using an Image-Based Assay - Set 3. [Related pubchem assays (depositor defined):AID1777, AID1785, AID1786, AID1966, AID2133, AID2136, AID2284, AID2285, AID2420]. The assay is classed as functional.
In assay [11] the target is T2, Kappa-type opioid receptor. Kind of assay: SAR analysis of Antagonists of the Kappa Opioid Receptor (KOR) using an Image-Based Assay - Set 4. [Related pubchem assays (depositor defined):AID1777, AID1785]. The assay is classed as functional.
For assay [12], the target named is Delta-type opioid receptor (Homo sapiens, UniProt P41143). Kind of assay: SAR Analysis of Antagonists of the DOR Receptor using an Image-Based Assay - Set 3. [Related pubchem assays (depositor defined):AID1777, AID1785]. In kind it is functional.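 Note: U2OS cells expressing DOR1 and beta-arrestin GFP stimulated with 100 nM SNC80; imaging of GFP-tagged beta-arrestin moving into spots after receptor activation.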
In assay [13] the target is T2, Kappa-type opioid receptor. Kind of assay: SAR analysis of small molecule antagonists of the kappa opioid receptor via a luminescent beta-arrestin assay - Set 6. [Related pubchem assays (depositor defined):AID1777, AID1778, AID1785, AID1786, AID1966, AID2133, AID2136, AID2285]. The assay is classed as functional.
Assay [14] deals with Low molecular weight phosphotyrosine protein phosphatase (Homo sapiens, UniProt P24666). In kind it is functional. Particulars: read-out: IC50_Mean.
Assay [15] deals with Dual specificity protein phosphatase 3 (Homo sapiens, UniProt P51452). Put plainly: Dose Response Confirmation of compounds that inhibit VHR1 in Fluorescent Assay. [Related pubchem assays (depositor defined):AID1661, AID1878]. The assay is classed as functional.
Assay [16] has as its target T3, Tyrosine-protein phosphatase non-receptor type 7 (Homo sapiens, UniProt P35236).
T3 sequence (P35236 whole entry): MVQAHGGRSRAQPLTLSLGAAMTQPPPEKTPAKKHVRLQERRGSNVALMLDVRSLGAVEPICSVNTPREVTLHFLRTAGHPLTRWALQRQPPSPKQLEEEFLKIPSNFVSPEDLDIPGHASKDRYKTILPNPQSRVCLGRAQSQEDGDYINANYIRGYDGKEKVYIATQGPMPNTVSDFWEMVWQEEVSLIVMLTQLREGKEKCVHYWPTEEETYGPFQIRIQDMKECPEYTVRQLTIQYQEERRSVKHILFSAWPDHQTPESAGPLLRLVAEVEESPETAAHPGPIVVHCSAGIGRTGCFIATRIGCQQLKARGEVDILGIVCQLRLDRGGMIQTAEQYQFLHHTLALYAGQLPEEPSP
Put plainly: Dose Response confirmation of compounds that inhibit HePTP. [Related pubchem assays (depositor defined):AID1059, AID1661, AID2085]. In kind it is functional.

For assay [17], the system named is Vero. Put plainly: cytotoxicity of synthesized analogs in Vero cells, SAR follow-up, cytotoxicity control for West Nile virus antiviral project, cell-based, set II (AID 2402). The assay is classed as functional. Particulars: Chlorocebus sabaeus.
Assay [18] concerns Vero. Kind of assay: Vero E6 cell cytotoxicity, SAR follow-up, cytotoxicity control for West Nile virus antiviral project, synthesized analogs (AID 2244). The assay is classed as functional. As to conditions: Chlorocebus sabaeus.
For assay [19], the system named is Vero. Put plainly: cytotoxicity of synthesized analogs in Vero 76, SAR follow-up, cytotoxicity control for West Nile virus antiviral project, Vero 76 cells (AID 2414). In kind it is functional. As to conditions: Chlorocebus sabaeus.
The test system of assay [20] is Vero. Put plainly: West Nile virus CPE inhibition, SAR follow-up, cell-based, synthesized analogs (AID 2238). In kind it is functional. Particulars: Chlorocebus sabaeus.

Calls of active or inactive are those of the source.
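Throughout, for IC50 Mean: Dose-response confirmation assay measuring inhibition of LMPTP enzyme activity by fluorescence intensity read-out.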

T2 sequence (P41145 whole entry): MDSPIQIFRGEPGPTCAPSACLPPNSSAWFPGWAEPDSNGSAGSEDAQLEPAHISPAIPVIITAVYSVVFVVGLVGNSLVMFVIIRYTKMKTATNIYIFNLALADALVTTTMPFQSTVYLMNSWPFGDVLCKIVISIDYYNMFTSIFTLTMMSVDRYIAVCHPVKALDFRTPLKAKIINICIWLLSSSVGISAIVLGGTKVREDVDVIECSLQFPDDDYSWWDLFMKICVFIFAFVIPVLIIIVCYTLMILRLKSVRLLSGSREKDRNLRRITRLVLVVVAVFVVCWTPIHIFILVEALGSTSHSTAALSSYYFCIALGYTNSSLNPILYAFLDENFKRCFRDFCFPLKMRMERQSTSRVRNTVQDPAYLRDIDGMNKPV
Sequence of NACHT, LRR and PYD domains-containing protein 3 (Q96P20 whole entry, the tested form may be a part): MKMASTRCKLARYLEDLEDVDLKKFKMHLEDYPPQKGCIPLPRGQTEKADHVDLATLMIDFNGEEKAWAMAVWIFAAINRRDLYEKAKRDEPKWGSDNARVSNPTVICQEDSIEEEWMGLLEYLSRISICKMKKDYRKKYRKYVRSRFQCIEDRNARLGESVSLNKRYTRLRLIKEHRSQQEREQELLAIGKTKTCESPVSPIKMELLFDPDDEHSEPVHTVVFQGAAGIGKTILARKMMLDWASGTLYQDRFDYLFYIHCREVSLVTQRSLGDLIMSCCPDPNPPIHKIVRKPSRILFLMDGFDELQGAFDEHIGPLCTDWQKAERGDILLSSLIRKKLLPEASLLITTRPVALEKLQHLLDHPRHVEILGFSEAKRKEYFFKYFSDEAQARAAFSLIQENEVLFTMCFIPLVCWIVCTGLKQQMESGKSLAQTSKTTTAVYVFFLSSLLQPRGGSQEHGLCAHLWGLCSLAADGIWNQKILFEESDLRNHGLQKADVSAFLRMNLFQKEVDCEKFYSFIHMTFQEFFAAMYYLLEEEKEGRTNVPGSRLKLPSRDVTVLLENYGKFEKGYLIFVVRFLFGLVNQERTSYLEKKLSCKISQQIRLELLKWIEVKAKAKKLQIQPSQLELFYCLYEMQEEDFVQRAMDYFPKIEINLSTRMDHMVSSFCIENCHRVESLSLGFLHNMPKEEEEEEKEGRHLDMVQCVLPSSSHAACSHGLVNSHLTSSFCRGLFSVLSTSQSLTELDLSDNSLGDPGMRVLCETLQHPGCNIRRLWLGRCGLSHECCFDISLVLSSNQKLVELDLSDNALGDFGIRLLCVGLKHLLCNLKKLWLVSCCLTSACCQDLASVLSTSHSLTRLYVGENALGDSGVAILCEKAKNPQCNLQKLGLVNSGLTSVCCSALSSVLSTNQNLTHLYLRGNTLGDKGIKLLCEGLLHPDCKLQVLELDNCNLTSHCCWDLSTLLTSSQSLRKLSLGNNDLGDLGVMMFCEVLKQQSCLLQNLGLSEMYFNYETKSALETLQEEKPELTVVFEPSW
Sequence of Dual specificity protein phosphatase 3 (P51452 whole entry): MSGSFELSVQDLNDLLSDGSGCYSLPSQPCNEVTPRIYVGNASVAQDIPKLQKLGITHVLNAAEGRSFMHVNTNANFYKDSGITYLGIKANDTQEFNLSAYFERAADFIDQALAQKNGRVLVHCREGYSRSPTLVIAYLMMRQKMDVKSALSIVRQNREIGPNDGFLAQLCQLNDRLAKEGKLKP
Sequence of Delta-type opioid receptor (P41143 whole entry): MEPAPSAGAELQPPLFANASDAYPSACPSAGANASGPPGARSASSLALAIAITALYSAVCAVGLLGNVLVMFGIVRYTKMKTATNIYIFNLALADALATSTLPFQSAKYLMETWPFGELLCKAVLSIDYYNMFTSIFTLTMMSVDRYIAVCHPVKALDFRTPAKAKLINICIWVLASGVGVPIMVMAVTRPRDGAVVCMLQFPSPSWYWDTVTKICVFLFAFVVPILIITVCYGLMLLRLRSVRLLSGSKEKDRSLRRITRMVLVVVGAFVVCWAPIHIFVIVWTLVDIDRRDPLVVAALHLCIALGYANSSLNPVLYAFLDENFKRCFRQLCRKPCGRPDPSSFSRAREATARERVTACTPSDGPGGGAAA
Sequence of Signal transducer and activator of transcription 3 (P40763 whole entry): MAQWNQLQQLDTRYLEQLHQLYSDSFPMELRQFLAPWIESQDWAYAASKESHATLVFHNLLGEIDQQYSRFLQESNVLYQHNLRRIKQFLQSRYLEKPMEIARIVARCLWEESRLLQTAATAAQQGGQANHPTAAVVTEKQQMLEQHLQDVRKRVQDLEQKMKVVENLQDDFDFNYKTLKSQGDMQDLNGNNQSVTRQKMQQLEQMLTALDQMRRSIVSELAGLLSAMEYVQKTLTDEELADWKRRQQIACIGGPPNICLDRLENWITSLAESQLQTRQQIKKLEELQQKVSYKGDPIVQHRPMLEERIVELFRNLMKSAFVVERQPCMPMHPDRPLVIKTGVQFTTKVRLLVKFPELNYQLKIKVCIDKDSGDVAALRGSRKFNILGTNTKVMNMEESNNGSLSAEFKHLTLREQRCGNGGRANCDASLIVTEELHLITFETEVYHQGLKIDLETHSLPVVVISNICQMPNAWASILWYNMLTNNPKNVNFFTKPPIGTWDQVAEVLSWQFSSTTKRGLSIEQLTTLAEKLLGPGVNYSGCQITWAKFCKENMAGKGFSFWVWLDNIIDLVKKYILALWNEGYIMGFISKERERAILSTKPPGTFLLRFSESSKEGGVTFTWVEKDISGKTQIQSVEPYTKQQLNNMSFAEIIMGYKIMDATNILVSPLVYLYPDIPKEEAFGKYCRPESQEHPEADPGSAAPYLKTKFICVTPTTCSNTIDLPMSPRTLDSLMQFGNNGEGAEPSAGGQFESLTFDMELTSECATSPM
Sequence of Mu-type opioid receptor (P35372 whole entry): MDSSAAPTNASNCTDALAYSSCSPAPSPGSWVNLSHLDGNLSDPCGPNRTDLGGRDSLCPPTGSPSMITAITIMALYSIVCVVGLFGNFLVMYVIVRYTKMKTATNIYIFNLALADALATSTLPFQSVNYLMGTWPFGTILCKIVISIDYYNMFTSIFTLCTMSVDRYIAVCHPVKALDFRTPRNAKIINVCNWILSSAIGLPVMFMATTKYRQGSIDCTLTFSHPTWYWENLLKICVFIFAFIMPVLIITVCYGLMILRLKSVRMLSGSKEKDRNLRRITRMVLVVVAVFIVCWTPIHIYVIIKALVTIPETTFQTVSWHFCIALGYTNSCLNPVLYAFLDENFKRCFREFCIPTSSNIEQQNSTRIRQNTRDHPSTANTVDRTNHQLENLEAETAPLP
Sequence of Low molecular weight phosphotyrosine protein phosphatase (P24666 whole entry): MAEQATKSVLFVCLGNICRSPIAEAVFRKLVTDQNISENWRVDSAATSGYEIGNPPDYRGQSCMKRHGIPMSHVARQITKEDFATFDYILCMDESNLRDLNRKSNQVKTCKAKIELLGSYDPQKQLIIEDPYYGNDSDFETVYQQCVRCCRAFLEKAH
Sequence of Neurotensin receptor type 1 (P30989 whole entry, the tested form may be a part): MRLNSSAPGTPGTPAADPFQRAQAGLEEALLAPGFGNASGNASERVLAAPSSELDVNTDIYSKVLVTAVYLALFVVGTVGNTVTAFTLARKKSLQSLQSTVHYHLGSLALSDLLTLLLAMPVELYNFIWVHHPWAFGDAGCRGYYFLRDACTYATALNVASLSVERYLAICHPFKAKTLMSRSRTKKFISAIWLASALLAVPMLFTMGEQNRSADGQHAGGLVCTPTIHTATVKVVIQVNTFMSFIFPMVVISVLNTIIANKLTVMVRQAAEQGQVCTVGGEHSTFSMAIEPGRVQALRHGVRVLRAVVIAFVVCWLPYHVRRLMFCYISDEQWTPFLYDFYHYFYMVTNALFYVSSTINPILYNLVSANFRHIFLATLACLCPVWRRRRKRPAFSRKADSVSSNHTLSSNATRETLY

What is called EC50 is the concentration at which the effect is half-maximal. Regarding `O=C(Nc1ccccc1Cl)c1cc(C2CC2)on1`, the EC50 in assay [1] was 6.08 µM (active).
As for `CCCCCCCCn1c2c(c(=N)c3ccccc31)CCC2`, the EC50 in [2] was 17.7 µM (active); in assay [4], 8.28 µM (active); in [6], 14 nM (active); in assay [8], < 100 nM (active). The IC50 in assay [3] is 11.9 µM (active); in [5], 7.78 µM (not active); in [7], 59.4 µM (inactive).
Turning to `Cc1ccc(S(=O)(=O)NCc2ccc(C(=O)NCCCN3CCN(c4ccccc4)CC3)cc2)cc1`, the IC50 in assay [9] is > 20 µM (inactive); in assay [10], 469 nM (active); in assay [11], > 32 µM (inactive); in [12], > 32 µM (inactive); in assay [13], > 20 µM (inactive).
Consider `O=C(CSc1ccc2ccccc2n1)Nc1nsc(-c2ccc(Cl)cc2)n1`, for which the IC50 in assay [14] is 11.7 µM (active); in assay [15] it was 6.74 µM (active); in [16] it was 931 nM (active).
The CC50 is the concentration that lowers cell viability or growth by half. On to `O=C(CSc1nc2ccccc2c(=O)n1-c1ccc(F)c(Cl)c1)Nc1ccc2c(c1)CCC2`, for which the CC50 in assay [17] was > 100 µM (active); in assay [18], > 40 µM (active); in [19], > 66.6 µM (active). In addition, the IC50 in assay [20] is 19.3 µM (active).
